Source: patent publication EP2616456B1, “NUCLEAR EXPORT INHIBITORS” (Universitätsmedizin der Johannes Gutenberg-Universität Mainz, priority 2010, dated 2012)
“Also recorded” adds a separate entry of the source.

What was measured:
human CRM1 (Crm1-HA) = human CRM1 (Crm1-HA) (Homo sapiens, UniProt O14980); assay: In vitro pull-down of Crm1-HA with GST-SurvivinNES-GFP beads; assay type: binding; settings: preincubation 400nM, 30min at 4°C
Procedure: The binding of LMB and of compounds C3 and C5 to CRM1 was examined by in vitro pull-down assays as described by Stauber et al., 2006. Briefly, in vitro coupled transcription/translation was performed using the TNT reticulocyte lysate system (Promega, Madison, WI, USA) supplemented with methionine (Promega, Madison, WI, USA) and plasmid pCrm1_HA (1µg), encoding a hemagglutinin epitope-tagged version of human CRM1 (Crm1-HA), as the template. Equal amounts of the Crm1-HA TNT reaction were preincubated with either DMSO (negative control; 0.1%), LMB (400nM, final concentration), C3 (1 mM; final concentration) or C5 (1mM; final concentration) in binding-buffer containing 5mM MgCl2 (AppliChem, Darmstadt, Germany), 2mM GTP (PEQLAB, Erlangen, Germany), 50mM Hepes pH 7.9 (AppliChem, Darmstadt, Germany), 200mM KCI (AppliChem, Darmstadt, Germany), 0.4% Tween 20 (AppliChem, Darmstadt, Germany), supplemented with complete protease inhibitor cocktail (Roche, Mannheim, Germany) for 30min at 4°C. Subsequently, GST-Sepharose beads loaded with 25µg recombinant GST-SurvivinNES-GFP and 5µg GST-RanQ96L were added to each drug-treated TNT reaction. Recombinant GST-SurvivinNES-GFP and GST-RanQ96L were purified from bacteria as described by Stauber et al., 2006. Pull-down was performed for 4h at 4°C in a rotating wheel. Samples were then centrifuged (3500rpm, 1min, 4°C) to recover the GST-SurvivinNES-GFP beads with bound Crm1-HA. Beads were washed three times with binding-buffer (500µl each washing step, 3500rpm, 1min, 4°C). Finally, bound proteins were eluted by adding 25µl 2xSDS-sample buffer (250mM Tris-HCl pH 6.8; 2% w/v SDS, 20% glycerol, 2% β-mercaptoethanol, 0.002% w/v bromophenol blue) and incubating at 95°C for 2min. Samples were separated by SDS-gelelectrophoresis and analyzed by immunoblot analysis as described by Stauber et al., 2006. Crm1-HA was detected with HA specific antibodies (MMS-101R, Covance, New Jersey, USA). GFP served as the loading control and was visualized with GFP specific antibodies (sc-8334, Santa Cruz Biotechnology, Heidelberg, Germany).

RevNES-biosensor = RevNES-biosensor translocation (NES-mediated nuclear export) in living HeLa cells, fluorescence microscopy; assay type: cell-based; settings: for Cellular localization of green fluorescent RevNES-biosensor: HeLa
Procedure: The activity of compounds C3, C5 and C24 to inhibit NES-mediated nuclear export in living cells was analyzed as described in Fetz et al., 2009 using living HeLa (cervix carcinoma), FaDu (head and neck cancer), MDA-MB231 (mammacarcinoma) and SW480 cells (colon cancer) which transiently expressed the RevNES-biosensor. The RevNES-biosensor is a fusion protein composed of (from N to C terminus) the SV40 large T-antigen nuclear localization signal (NLS), glutathion-S-transferase (GST), green fluorescent protein (GFP) and the nuclear export signal (NES) of the HIV-1 (human immunodeficiency virus) Rev protein (RevNES).
The cells of the control were treated with a corresponding amount of DMSO only. The cellular localization of RevNES-biosensor was monitored by fluorescence microscopy. […] Maximum of cellular accumulation was observed after 1h (C24), after 2h (C3) and after 5h (C5), respectively. […] Thus, the inhibitory activity of C3 and C24 (reversible) but not of C5 (irreversible) was reversed after 24h. Table 1: Cellular localization of green fluorescent RevNES-biosensor
Table 3: Cellular localization of green fluorescent RevNES-biosensor
(§1) IC50 value corresponds to compound concentration reducing HeLa cell viability by 50%. Topt is the time point post treatment when maximum nuclear export inhibition was observed by fluorescence microscopy. Table 4: Functional characteristics of nuclear export inhibitors

Survivin = assay: Nuclear export of Survivin-GFP fusion transiently expressed in HeLa cells; assay type: cell-based; settings: transient expression, 25µM
Procedure: The activity of compounds to inhibit the export of the oncologically relevant protein Survivin as well as of the HIV-1 Rev protein was analyzed.
Nuclear export of Survivin is crucial for its tumor promoting cytoprotective activity (Engels et al., 2007; Knauer et al., 2007a; Knauer et al., 2007b).

HIV-1 Rev protein = assay: Nuclear export of HIV-1 Rev-GFP in actinomycin D treated HeLa cells; assay type: cell-based; settings: 25µM
Excerpt: The HIV-1 Rev protein transports unspliced and incompletely spliced viral RNAs from the nucleus into the cytoplasm (Stauber et al., 1995). As such, Rev's export function is crucial for viral replication and AIDS development (Pavlakis and Stauber, 1998; Stauber et al., 1995).

HeLa cells = assay: Cell viability (CellTiter-Glo) and cell death, HeLa; assay type: cell-based; settings: Homo sapiens; compound concentration reducing HeLa cell viability by 50%
Procedure: To test the anti-cancer activity of the compounds, several cancer cell lines, currently used as models for different epithelial cancers and leukemias, were treated with the indicated inhibitors. […] Every 24h, the cell culture medium was replaced by fresh compound-containing medium. 72h post treatment, cell were analyzed by adding 100µl CellTiter-Glo® assay reagent (Promega). Luminescence was measured with a LuminoskanAscent device (ThermoScientific). Cells treated with a corresponding amount of DMSO only were use as a control. The luminescence (equals cell viability) of said control was set to 100%.
as §1
(§2) It was assessed whether the export inhibitors also affect the viability of non-malignant human cells, precluding their potential (pre)clinical use. 10^3 freshly isolated non-malignant primary human fibroblasts (HTF-8) or HeLa cells/well were seeded and 24h later treated with the indicated compounds (final concentration: 100µM). Every 24h cell culture medium was replaced by freshly prepared compound-containing medium. 72h post treatment the cells were analyzed by adding 100µl CellTiter-Glo® assay reagent, and luminescence measured with a LuminoskanAscent (ThermoScientific). Cells treated with DMSO only were used as a control. The fluorescence measured (equals cell viability) with said control was set to 100%.

HTF-8 = assay: Viability (CellTiter-Glo) and cell death of non-malignant primary fibroblasts HTF-8; assay type: cell-based; settings: HTF-8 non-malignant primary human fibroblasts, 100µM, 72h
Procedure: as §2, with “10^3 freshly isolated non-malignant primary human fibroblasts (HTF-8) or HeLa cells/well were seeded and 24h later treated with the indicated compounds (final concentration: 100µM).” left out

Sequence of human CRM1 (Crm1-HA) (O14980 whole entry): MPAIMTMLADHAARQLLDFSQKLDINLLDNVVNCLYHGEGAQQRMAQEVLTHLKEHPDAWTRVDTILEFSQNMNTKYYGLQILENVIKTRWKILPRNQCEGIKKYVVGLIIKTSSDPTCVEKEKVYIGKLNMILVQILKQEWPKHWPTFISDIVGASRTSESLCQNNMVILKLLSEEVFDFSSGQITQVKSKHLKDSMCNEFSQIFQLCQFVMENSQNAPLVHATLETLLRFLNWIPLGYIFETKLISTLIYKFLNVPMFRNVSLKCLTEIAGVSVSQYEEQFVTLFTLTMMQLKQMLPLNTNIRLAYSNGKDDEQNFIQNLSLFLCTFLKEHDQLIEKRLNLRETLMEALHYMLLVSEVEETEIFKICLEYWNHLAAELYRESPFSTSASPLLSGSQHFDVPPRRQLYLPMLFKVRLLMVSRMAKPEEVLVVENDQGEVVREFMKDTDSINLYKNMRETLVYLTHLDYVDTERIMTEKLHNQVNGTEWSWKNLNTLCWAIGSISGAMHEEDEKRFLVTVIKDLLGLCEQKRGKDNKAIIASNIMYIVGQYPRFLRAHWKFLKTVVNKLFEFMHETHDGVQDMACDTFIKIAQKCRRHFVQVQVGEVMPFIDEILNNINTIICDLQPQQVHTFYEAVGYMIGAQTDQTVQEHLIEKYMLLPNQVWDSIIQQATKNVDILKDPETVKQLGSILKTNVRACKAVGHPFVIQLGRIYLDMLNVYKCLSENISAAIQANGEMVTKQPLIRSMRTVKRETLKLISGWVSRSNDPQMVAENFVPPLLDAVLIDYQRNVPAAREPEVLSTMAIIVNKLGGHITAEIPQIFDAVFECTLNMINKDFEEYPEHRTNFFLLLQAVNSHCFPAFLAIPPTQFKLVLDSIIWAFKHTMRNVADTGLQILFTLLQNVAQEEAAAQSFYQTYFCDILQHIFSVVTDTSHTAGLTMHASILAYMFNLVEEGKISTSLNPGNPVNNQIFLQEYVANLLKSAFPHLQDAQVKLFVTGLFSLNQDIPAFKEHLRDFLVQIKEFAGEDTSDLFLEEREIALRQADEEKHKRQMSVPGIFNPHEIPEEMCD

SMILES	interaction of Crm1-HA with the export substrate GST-SurvivinNES-GFP (human CRM1 (Crm1-HA))	Cellular localization of green fluorescent RevNES-biosensor (RevNES-biosensor; 25µM, T = 24h)	Cellular localization of green fluorescent RevNES-biosensor (RevNES-biosensor; 25µM, at Topt)	Topt at 25µM (RevNES-biosensor; Table 4, 25µM, fluorescence microscopy)	Mode of Inhibition (RevNES-biosensor; reversal of export inhibition after 24h, C5: 5-12h observation)	Localization of Survivin-GFP fusion (nuclear export of Survivin) (Survivin)	Localization of HIV-1 Rev-GFP (nuclear export of HIV-1 Rev protein) (HIV-1 Rev protein)	IC50 (HeLa cells)	viability compared to the control (HTF-8)
CCC(=C/[C@H](C)C/C=C/C(C)=C/[C@@H](C)C(=O)[C@@H](C)[C@H](O)[C@@H](C)C/C(C)=C/C(=O)O)/C=C/[C@@H]1OC(=O)C=C[C@@H]1C [LMB, leptomycin B, reference compound]	prevented the interaction								
NC(=O)c1c(NC(NC(=O)c2cccc(F)c2)(C(F)(F)F)C(F)(F)F)sc2c1CCC2 [Compound C24, 2-[[1,1,1,3,3,3-hexafluoro-2-[(3-fluorobenzoyl)amino]propan-2-yl]amino]-5,6-dihydro-4H-cyclopenta[b]thiophene-3-carboxamide]		predominantly localized in the cytoplasm	nuclear accumulation; also recorded: nucleus	∼1h	reversible	accumulated in the nucleus	restored the nuclear accumulation	31 µM	do not affect viability
